The values below come from US9249035B2, “Method and system for treating water in order to reduce its endocrine disrupting effect by means of a living organism” (Veolia Water Solutions & Technologies Support, priority 2012, dated 2016).

The data set relates to larvae of genetically modified amphibians. Briefly: Calibration test: fluorescence of genetically modified amphibian larvae exposed to growing estrogen concentrations. The data set is classed as in vivo. The following applies: FIG. 3. As to the method:
A test of calibration of a plant to implement the method according to the invention was carried in order to determine an acceptable threshold value of endocrine disruptors in the treated water. This calibration test also makes it possible to distinguish the natural fluorescence of water and the basal fluorescence of genetically modified aquatic organisms, related to the normal functioning of the genes, from the fluorescence emitted by the same organisms when they detect the presence of an endocrine disrupting and/or toxic and/or genotoxic pollutant. The fluorescence of water and the basal fluorescence of the genetically modified aquatic organisms can be likened to background noise which must be evaluated in order to deduct it from the signal measured in the presence of a pollutant.
The disruptor chosen for example is estrogen which is found in urban wastewater. […] These concentrations have been related to measured intensities of fluorescence.
From a reading of this graph, it can observed that amphibian larvae are sensitive to very low doses of estrogen such as ethinyl-oestradiol (EE2) (2.5×10^−10 mol/L) and emit a detectable and quantifiable intensity of fluorescence. […] This concentration is related with the measured intensity of fluorescence. […]

Where only a bound is given, the exact number is not on record here.

On to ethinyl-oestradiol, for which the “estrogen concentration leading to a physiological reversal” value is ≥ 2×10^−9 mol/L; the “very low dose at which amphibian larvae emit a detectable and quantifiable intensity of fluorescence” value came to 2.5e-10 mol/L.
